Kd data for one compound are collected here from article PMC5560858, “A lectin receptor kinase as a potential sensor for extracellular nicotinamide adenine dinucleotide in Arabidopsis thaliana” (eLife, 2017).

As a reminder, the Kd is a measure of binding affinity in units of concentration.

This assay has as its target T1, LecRK-I.8 (lectin receptor kinase-I.8, At5g60280) (Arabidopsis thaliana, UniProt Q9LSR9).
T1 construct: gene LECRK18; extracellular lectin domain (amino acids 23 to 283) fused to GFP (eLecRK-I.8-GFP)
Kind of assay: […]-NAD+ radioligand saturation binding to immunoprecipitated eLecRK-I.8-GFP; also competition, and binding to recombinant MBP-eLecRK-I.[…].

T1 sequence (Q9LSR9 23-283): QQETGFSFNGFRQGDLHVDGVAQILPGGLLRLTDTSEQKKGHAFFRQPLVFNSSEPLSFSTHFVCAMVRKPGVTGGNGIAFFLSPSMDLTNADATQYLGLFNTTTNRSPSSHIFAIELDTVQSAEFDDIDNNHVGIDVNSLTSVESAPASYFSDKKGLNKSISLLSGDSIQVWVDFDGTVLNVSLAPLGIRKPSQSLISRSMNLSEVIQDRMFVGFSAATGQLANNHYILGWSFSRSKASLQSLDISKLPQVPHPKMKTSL

Consider `NC(=O)c1ccc[n+]([C@@H]2O[C@H](COP(=O)([O-])OP(=O)(O)OC[C@H]3O[C@@H](n4cnc5c(N)ncnc54)[C@H](O)[C@@H]3O)[C@@H](O)[C@H]2O)c1` [NAD+], for which the dissociation constant (Kd) was 437 ± 105 nM.
